# Active and inactive are the calls of the source.
# Key:
# [1] = intracellular Trypanosoma cruzi inhibitors in host cells – cell-based, plate reader, cherry-pick samples, set 3, dose response (AID 651818); assay type: functional;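 note: compounds incubated with infected cells for about four days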
# [2] = biological target: Ras and Rab interactor 1/Tyrosine-protein kinase ABL1 (Homo sapiens, UniProt P00519+Q13671); assay type: functional;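 note: biochemical TR-FRET dose-response test measuring inhibition of binding between Rin1 and Abl proteins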
# [3] = biological target: T1, Carboxy-terminal domain RNA polymerase II polypeptide A small phosphatase 1 (Homo sapiens, UniProt Q9GZU7); assay: CTDSP1 inhibitors, concentration-response, biochemical, absorbance readout, ultra-high-throughput screen actives (AID 540297); assay type: functional
# T1 sequence (Q9GZU7 whole entry): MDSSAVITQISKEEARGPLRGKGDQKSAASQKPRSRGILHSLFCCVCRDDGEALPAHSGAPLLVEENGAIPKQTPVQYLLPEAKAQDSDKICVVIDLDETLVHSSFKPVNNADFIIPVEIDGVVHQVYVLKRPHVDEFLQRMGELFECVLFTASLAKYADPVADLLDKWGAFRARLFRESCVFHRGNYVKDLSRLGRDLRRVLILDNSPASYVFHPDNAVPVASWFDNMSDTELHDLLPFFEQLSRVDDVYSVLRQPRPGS
# INS1 = assay: INS-1E survival protection against cytokine death – cell-based, luminescence, retest, dose response (AID 449756); assay type: functional; details: Rattus norvegicus;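 note: cell death triggered by IL-1 beta plus TNF-alpha plus IFN-gamma mixture; protective hits raise ATP signal compared with cytokine alone wells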
# [4] = reduction of Shn3 3'UTR-driven luciferase in osteoblasts – cell-based, Clone20 osteoblasts, firefly luciferase, cherry-picked, dose response (AID 624132); assay type: functional;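 note: firefly luciferase luminescence from reporter carrying the Shn3 3'UTR in osteoblasts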
# [5] = non-specific 3'UTR reporter inhibition in Clone20-Shn3RL – cell-based, Renilla luciferase, cherry-picked, counter-screen for Shn3 inhibitor project, dose response (AID 624133); assay type: functional
# [6] = blockers of bursicon-stimulated LGR2 cAMP reporter – cell-based, HEK293, CRE-luciferase reporter, cherry pick, set 2, dose response (AID 743343); assay type: functional;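 note: transfected cells were stimulated with diluted bursicon conditioned medium after compound addition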
# [7] = blockade of melanocortin 4 receptor signaling – cell-based, plate reader, cherry pick, counter-screen for LGR2 antagonist project, dose response (AID 743444); assay type: functional;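 note: transfected HEK 293 cells stimulated with alpha-MSH peptide; potency of inhibitors of the alpha-MSH evoked signal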
# [8] = blockers of HIV-1 envelope-mediated cell-cell fusion – cherry-pick, dose response (AID 652057); assay type: functional, cell-based
# [9] = blockers of HIV-1 ZM109 envelope-driven cell-cell fusion – HeLa effector, CEM target cells, luciferase, cherry-pick, dose response (AID 652058); assay type: functional, cell-based;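 note: luciferase signal from HIV-1 Env mediated cell-cell fusion of effector and target cells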
# [10] = HIV-1 AD8 envelope cell-cell fusion blockers – cherry-pick, dose response (AID 652062); assay type: functional, cell-based;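 note: luciferase signal from cell-cell fusion driven by HIV-1 clade B AD8 Env; potency is for inhibitors of fusion seen as a drop in luminescence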
# P388/ADR = assay: cells; assay type: functional; details: Mus musculus
# SN12K1 = assay: cells; assay type: functional; details: Homo sapiens
# [11] = biological target: T2, DNA repair protein RAD52 homolog (Homo sapiens, UniProt P43351); assay type: functional, biochemical
# T2 sequence (P43351 whole entry): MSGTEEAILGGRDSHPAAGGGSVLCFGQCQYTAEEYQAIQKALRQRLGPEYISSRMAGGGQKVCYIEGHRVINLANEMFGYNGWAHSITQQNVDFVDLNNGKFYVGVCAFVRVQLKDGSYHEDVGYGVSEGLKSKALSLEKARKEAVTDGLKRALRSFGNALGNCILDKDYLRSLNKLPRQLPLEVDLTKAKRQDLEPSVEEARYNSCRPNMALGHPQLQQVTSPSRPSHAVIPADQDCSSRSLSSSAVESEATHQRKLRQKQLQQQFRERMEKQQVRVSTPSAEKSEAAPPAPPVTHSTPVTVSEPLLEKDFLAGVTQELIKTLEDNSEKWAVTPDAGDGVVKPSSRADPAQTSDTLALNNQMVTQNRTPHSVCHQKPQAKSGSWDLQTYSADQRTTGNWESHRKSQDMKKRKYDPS
# [12] = tested on: Streptococcus sp. 'group A'; assay: Streptococcus pyogenes SK(-)GAS viability under kanamycin – luminescence, BacTiterGlo, confirmation, counter-screen for streptokinase expression inhibitor project, dose response (AID 1900); assay type: functional, organism-based
# Streptokinase A = biological target: T3, Streptokinase A (Streptococcus pyogenes serotype M1, UniProt P10520); assay: viability-normalized secreted streptokinase activity reduction – plasminogen activation absorbance, OD405, dose response (AID 1914); assay type: functional, Streptococcus pyogenes M1 GAS;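 note: secreted streptokinase activity via plasminogen activation per viability signal from cell pellet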
# T3 sequence (P10520 whole entry): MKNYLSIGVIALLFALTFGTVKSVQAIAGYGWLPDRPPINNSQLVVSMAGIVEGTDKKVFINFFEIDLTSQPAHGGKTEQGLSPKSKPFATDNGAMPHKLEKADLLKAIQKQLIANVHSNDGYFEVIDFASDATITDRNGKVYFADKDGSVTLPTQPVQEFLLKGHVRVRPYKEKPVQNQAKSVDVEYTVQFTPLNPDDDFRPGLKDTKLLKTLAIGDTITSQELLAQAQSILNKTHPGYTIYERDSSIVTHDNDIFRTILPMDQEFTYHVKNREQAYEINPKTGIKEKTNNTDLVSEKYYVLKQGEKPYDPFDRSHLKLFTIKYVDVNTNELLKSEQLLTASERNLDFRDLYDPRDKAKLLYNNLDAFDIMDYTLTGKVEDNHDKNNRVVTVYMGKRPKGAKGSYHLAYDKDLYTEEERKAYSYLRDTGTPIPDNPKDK
# [13] = Trypanosoma cruzi growth suppression in host cells – NIH3T3 host cells, beta-gal luminescence, confirmation (AID 2044); assay type: functional, cell-based;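 note: intracellular parasites grown in NIH/3T3 mouse fibroblasts as host cells; luminescent beta-galactosidase reporter signal from transgenic T. cruzi replicating inside host cells; inhibitors lower the luminescence signal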
# [14] = NIH3T3 cell viability loss – ATP luminescence, mouse fibroblasts, counter-screen, dose response (AID 2010); assay type: functional, cell-based;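 note: cells exposed to compound for about 90 hours before reading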
# Streptococcus = assay: GAS UMAA2166 growth inhibition – luminescence, BacTiterGlo, counter-screen for streptokinase expression inhibitor project, dose response (AID 1915); assay type: functional, organism-based;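 note: potency for reduction of bacterial viability or growth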
# Nonstructural protein 1 = Nonstructural protein 1 (Influenza A virus, UniProt Q194T2); assay type: functional, Influenza A virus (A/California/07/2009(H1N1))
# [15] = biological target: T4, Replicative DNA helicase DnaB (Mycobacterium tuberculosis, UniProt P9WMR3); assay: DnaB intein splicing inhibitors, dose response, biochemical, cell-free fluorescence (AID 449749); assay type: functional
# T4 sequence (P9WMR3 whole entry): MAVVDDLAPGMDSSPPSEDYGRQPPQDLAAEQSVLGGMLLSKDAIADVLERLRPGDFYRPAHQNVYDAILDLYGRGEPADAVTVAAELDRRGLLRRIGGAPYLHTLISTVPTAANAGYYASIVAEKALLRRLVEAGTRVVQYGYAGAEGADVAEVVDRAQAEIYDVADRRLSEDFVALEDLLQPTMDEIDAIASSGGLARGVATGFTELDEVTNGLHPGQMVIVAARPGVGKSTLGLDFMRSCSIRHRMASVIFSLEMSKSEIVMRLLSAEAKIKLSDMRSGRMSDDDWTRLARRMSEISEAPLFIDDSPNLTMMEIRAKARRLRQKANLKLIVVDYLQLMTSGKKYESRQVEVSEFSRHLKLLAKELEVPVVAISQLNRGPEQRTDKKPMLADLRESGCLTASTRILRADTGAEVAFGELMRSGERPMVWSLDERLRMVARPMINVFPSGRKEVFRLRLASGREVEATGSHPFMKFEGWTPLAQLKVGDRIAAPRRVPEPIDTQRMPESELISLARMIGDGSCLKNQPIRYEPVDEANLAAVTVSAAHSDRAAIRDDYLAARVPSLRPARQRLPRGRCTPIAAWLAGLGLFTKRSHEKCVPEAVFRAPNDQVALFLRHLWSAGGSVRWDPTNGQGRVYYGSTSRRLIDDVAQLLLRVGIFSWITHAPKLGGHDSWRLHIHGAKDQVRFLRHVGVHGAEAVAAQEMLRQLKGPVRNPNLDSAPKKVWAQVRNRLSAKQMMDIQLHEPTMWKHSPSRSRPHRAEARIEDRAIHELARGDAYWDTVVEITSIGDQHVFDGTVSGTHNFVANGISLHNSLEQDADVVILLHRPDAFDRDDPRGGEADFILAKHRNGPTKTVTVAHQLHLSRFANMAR
# Protein RecA = biological target: T5, Protein RecA (Mycobacterium tuberculosis, UniProt P9WHJ3); assay: Fluorescence Cell-Free Homogeneous Dose Retest to Identify Inhibitors of RecA-Intein Splicing Activity. [Related pubchem assays (depositor defined):AID2097, AID2223, AID489010, AID492950]; assay type: functional
# T5 sequence (P9WHJ3 whole entry): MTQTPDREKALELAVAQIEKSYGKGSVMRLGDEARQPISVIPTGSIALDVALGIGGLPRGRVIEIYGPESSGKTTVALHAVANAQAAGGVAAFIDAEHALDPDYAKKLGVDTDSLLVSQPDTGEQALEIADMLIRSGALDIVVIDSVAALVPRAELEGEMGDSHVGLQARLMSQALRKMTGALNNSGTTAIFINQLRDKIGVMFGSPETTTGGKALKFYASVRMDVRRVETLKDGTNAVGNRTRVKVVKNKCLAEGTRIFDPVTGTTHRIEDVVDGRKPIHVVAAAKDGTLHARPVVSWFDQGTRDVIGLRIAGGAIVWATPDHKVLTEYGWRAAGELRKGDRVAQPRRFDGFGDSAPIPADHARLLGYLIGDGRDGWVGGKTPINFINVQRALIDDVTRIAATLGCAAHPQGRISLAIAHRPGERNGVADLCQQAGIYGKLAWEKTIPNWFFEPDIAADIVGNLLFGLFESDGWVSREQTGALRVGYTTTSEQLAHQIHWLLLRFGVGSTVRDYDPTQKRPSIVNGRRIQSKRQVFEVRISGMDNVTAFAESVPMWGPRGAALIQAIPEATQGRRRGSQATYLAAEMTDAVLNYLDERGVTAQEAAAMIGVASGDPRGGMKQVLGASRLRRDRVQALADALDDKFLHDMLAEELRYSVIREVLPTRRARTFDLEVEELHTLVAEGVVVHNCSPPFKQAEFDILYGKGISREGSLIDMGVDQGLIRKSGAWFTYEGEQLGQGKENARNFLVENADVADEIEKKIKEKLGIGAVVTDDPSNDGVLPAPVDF
# [16] = Luminescence Cell-Based Dose Retest to Confirm Inhibitors of Cancer Stem Cells. [Related pubchem assays (depositor defined):AID2717, AID2721]; assay type: functional; details: Homo sapiens
# [17] = biological target: T6, Ubiquitin-conjugating enzyme E2 N (Homo sapiens, UniProt P61088); assay type: functional;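 note: Dose-response confirmation in a TR-FRET assay detecting UBC13-driven polyubiquitin chain formation, inhibition measured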
# T6 sequence (P61088 whole entry): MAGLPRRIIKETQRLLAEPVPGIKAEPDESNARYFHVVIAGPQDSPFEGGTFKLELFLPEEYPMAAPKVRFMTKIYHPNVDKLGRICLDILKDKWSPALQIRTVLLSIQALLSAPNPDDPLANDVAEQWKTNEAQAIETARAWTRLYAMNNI
# Sequence of Ras and Rab interactor 1/Tyrosine-protein kinase ABL1 (P00519 whole entry, the tested form may be a part): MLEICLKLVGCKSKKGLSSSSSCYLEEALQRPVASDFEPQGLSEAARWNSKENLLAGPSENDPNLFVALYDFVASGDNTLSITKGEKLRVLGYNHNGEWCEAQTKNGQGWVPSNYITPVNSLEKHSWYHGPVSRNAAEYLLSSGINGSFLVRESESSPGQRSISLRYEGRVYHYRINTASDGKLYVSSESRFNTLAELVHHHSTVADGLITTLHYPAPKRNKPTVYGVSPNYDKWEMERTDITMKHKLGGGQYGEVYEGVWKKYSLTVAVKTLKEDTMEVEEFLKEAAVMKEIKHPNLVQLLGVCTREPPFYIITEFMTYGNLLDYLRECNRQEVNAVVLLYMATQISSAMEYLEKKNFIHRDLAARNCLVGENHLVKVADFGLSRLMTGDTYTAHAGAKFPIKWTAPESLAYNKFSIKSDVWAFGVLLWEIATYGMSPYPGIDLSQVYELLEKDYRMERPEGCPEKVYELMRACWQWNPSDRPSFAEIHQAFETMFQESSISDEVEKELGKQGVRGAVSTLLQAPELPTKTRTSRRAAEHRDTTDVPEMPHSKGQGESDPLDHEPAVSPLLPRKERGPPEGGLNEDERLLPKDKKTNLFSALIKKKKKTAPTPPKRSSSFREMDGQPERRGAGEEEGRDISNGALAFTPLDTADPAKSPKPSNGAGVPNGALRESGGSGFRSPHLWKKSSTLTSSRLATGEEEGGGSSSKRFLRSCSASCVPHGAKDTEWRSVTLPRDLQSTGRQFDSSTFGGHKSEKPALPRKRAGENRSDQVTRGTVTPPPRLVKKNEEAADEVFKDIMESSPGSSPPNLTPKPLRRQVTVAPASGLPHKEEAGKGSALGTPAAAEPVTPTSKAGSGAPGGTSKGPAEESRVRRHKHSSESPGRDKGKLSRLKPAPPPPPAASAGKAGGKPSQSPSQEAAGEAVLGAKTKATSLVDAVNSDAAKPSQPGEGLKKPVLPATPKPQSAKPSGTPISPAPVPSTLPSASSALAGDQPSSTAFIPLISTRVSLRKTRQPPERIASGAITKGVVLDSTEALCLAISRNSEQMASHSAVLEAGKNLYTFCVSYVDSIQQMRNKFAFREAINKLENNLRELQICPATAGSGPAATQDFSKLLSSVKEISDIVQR
# Sequence of Ras and Rab interactor 1/Tyrosine-protein kinase ABL1 (Q13671 whole entry, the tested form may be a part): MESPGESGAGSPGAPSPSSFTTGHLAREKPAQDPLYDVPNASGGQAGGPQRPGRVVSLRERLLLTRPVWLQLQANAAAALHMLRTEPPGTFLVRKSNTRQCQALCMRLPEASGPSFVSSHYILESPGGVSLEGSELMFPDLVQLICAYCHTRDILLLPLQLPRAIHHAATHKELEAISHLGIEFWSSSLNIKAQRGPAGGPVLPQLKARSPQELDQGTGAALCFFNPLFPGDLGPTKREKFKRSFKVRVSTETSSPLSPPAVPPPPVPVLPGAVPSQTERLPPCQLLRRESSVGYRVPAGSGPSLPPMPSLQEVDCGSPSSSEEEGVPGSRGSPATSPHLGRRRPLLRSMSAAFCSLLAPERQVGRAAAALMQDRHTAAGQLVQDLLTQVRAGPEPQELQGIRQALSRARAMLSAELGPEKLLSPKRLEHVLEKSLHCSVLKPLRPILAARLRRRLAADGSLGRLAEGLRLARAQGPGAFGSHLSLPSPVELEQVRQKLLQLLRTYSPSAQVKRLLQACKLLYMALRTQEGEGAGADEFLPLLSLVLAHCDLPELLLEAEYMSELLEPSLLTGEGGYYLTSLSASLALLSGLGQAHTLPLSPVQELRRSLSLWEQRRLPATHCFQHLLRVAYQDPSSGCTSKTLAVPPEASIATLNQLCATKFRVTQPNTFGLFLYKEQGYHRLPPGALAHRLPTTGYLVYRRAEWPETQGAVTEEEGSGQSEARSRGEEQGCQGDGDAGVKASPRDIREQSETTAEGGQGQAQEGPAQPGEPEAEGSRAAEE
# Sequence of Nonstructural protein 1 (Q194T2 whole entry): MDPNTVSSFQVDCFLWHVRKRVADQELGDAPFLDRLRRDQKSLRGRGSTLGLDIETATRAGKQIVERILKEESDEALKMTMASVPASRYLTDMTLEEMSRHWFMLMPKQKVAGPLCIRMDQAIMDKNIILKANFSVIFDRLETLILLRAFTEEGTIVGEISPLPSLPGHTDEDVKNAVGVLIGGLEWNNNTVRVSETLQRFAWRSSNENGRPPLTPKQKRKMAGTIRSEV
compound,measurement,setting,value
C[C@@H]1CCCCO[C@@H](CN(C)C(=O)Nc2ccc(C(F)(F)F)cc2)[C@@H](C)CN([C@H](C)CO)C(=O)c2cc(NC(=O)NC3CCCCC3)ccc2O1,AC50,[1],5.12 µM (active)
O=C1N(c2cccc(Cl)c2)C(c2ccccc2)N2CCCN12 (stereo unspecified),IC50,[2],22.2 µM (inactive)
C[C@H](CO)N1C[C@H](C)[C@H](CN(C)C(=O)Nc2ccccc2)Oc2c(NC(=O)c3ccncc3)cccc2C1=O,AC50,[1],2.12 µM (active)
O=C(Cc1ccc(S(=O)(=O)N2CCOCC2)s1)NC1CCCCC1,IC50,[3],7.34 µM (active)
C[C@H](CO)N1C[C@H](C)[C@H](CN(C)Cc2ccc(-c3ccccc3)cc2)Oc2ccc(NC(=O)CCCCCC(=O)Nc3ccccc3N)cc2CC1=O,AC50,[1],3.39 µM (active)
CCN(CC)c1ccc(/C=N/NC(=O)CCCCCCC(=O)Nc2ccccc2O)c(O)c1,AC50,[1],1.94 µM (active)
COCCn1c(SCC(=O)/C=C2\N(C)c3ccccc3C2(C)C)nnc1-c1ccncc1,AC50,INS1,6.34 µM (active)
same,AC50,[4],2.65 µM (active)
same,AC50,[5],5.61 µM (active)
C=CCNc1nc(-c2cc3ccccc3o2)cs1,AC50,[6],13.9 µM (active)
same,AC50,[7],15.2 µM (active)
C[C@H](CO)N1C[C@H](C)[C@H](CN(C)S(=O)(=O)c2ccccc2)Oc2ccc(NC(=O)Cc3cn(C)c4ccccc34)cc2CC1=O,AC50,[8],< 0.26 µM (active)
same,AC50,[9],0.816 µM (active)
same,AC50,[10],12 µM (active)
CN(CCc1ccccc1)C(=O)c1ccc(NC(=O)Cc2ccc(NC(=O)C3CCN(C(=O)c4ccccc4)CC3)cc2)cc1,IC50,[2],3.91 µM (active)
COc1ccc2nc(NC(=O)CCc3nc(C4=CCN(C)CC4)no3)sc2c1,IC50,[2],1.4 µM (active)
COC(=O)c1c(C)nc(C)c2c(=O)oc3ccccc3c12,IC50,[2],> 73.5 µM (inactive)
O=C1C=C[C@@H](COC2OC(CO)C(O)C(O)C2O)O1 (stereo partly specified),GI50,P388/ADR,0.343 µM (active)
same,GI50,SN12K1,13.2 µM (inactive)
COc1ccc(-c2cc(NC=O)c3ncc(-c4cccc(C(=O)NCCN(C)C)c4)n3c2)c(OC)c1,AC50,[11],2.55 µM (active)
NC(=O)C(CC(=O)O)NC(=O)[C@@H]1CCCNc2c(I)cc([N+](=O)[O-])cc2C(=O)N[C@@H](CO)C(=O)N[C@@H](Cc2ccc(O)cc2)C(=O)N1 (stereo partly specified),IC50,[3],19.7 µM (active)
Cc1ccc(Cl)cc1N1CCN(C(=O)CSc2ccsc2[N+](=O)[O-])CC1,IC50,[3],6.96 µM (active)
O=C1N(c2cccc(Cl)c2)C(c2ccc(Cl)cc2)N2CCCN12 (stereo unspecified),IC50,[2],31.8 µM (inactive)
CCOC(=O)C1=C(C)n2c(s/c(=C/c3cccc([N+](=O)[O-])c3)c2=O)=NC1c1ccc(O)c(OC)c1 (stereo unspecified),EC50,[12],8.14 µM (active)
same,EC50,Streptokinase A,48.8 µM (active)
same,EC50,[13],1.11 µM (active)
same,EC50,[14],> 60 µM (not active)
same,EC50,Streptococcus,> 150 µM (not active)
same,IC50,Nonstructural protein 1,> 100 µM (active)
same,AC50,[15],13.1 µM (active)
same,EC50,Protein RecA,1.29 µM (active)
C[C@H]1CN([C@@H](C)CO)C(=O)Cc2cc(NC(=O)Cc3ccccc3)ccc2O[C@H]1CN(C)S(=O)(=O)c1ccccc1,AC50,[8],1.62 µM (active)
same,AC50,[9],1.6 µM (active)
same,AC50,[10],7.88 µM (active)
O=C(COC(=O)c1cccc(S(=O)(=O)N2CCN(c3ccccc3)CC2)c1)NCc1ccco1,IC50,[3],4.41 µM (active)
CC(=O)Nc1ccc(S(=O)(=O)NC2=NC(=O)/C(=C\c3ccco3)S2)cc1,IC50,[3],7.44 µM (active)
CCN1CCN(CCCNC(=O)c2ccc(/C=C3/Sc4ccccc4N(Cc4ccccc4F)C3=O)cc2)CC1,EC50,[13],1.07 µM (active)
same,EC50,[14],22.8 µM (active)
same,AC50,[16],2.41 µM (active)
same,IC50,[17],> 20 µM (inactive)
same,AC50,[11],8.67 µM (active)
